Source: patent publication US11819576B2, “Process for preparing nano-or microparticles comprising a carrier-polymer and one or more biologically active ingredients” (Evonik Operations GmbH, priority 2019, dated 2023)
Values after ≈ are worked out from the molar mass of the structure shown.

Columns and labels:
physchem = settings: 22 °C, organic solvent or mixture, thermodynamic from solid, Solubility in mg/ml
Protocol: 100 μl n-butanol was added and the dispersion was stirred at ˜300 to 500 rpm by a magnetic stirrer at 21-23° C. n-Butanol was added 10 μl wise.
100 μl water saturated n-butanol (achieved from example 4) was added and the dispersion was stirred at ˜300 to 500 rpm by a magnetic stirrer at 21-23° C. n-Butanol was added 10 μl wise.
100 μl 25% aqueous NaCl solution saturated n-butanol (achieved from example 6) was added and the dispersion was stirred at ˜300 to 500 rpm by a magnetic stirrer at 21-23° C. n-Butanol was added 10 μl wise.
31.35 mg efavirenz (Angene Intemational Limited, China) was weighed into a 10 ml glass vial containing a 1 cm magnetic bar. 50 μl n-butanol was added and the dispersion was stirred at ˜300 to 500 rpm by a magnetic stirrer at 21-23° C. n-Butanol was added 10 μl wise.
30.57 mg efavirenz was weighed into a 10 ml glass vial containing a 1 cm magnetic bar. 50 μl water saturated n-butanol (achieved from example 4) was added and the dispersion was stirred at ˜300 to 500 rpm by a magnetic stirrer at 21-23° C. Water saturated n-butanol was added 10 μl wise till 250 μl. After 250 μl, 25 μl wise addition was used.
31.35 mg efavirenz was weighed into a 10 ml glass vial containing a 1 cm magnetic bar. 50 μl 25% aqueous NaCl solution saturated n-butanol (achieved from example 6) was added and the dispersion was stirred at ˜300 to 500 rpm by a magnetic stirrer at 21-23° C. […]

[1] = Telmisartan release profile, dissolution test using USP II dissolution tester, acetate buffer pH 4.0, 2 h; format: physicochemical; settings: acetate buffer pH 4.0, USP II
Protocol: FIG. 2), Telmisartan release profile was analyzed by a dissolution test using a USP II dissolution tester (ERWEKA GmbH, Langen, Germany) at pH 4.0 acetate buffer for 2 h (shown in […]

| solubility (physchem) [mg/mL] | Release of Telmisartan ([1]; time 0 min) [%] | Release of Telmisartan ([1]; time 5 min) [%] | Release of Telmisartan ([1]; time 10 min) [%] | Release of Telmisartan ([1]; time 15 min) [%] | Release of Telmisartan ([1]; time 30 min) [%] | Release of Telmisartan ([1]; time 45 min) [%] | Release of Telmisartan ([1]; time 60 min) [%] | Release of Telmisartan ([1]; time 90 min) [%] | Release of Telmisartan ([1]; time 120 min) [%] | Compound |
| --- | --- | --- | --- | --- | --- | --- | --- | --- | --- | --- |
| 22 (≈ 57.7 mM) |  |  |  |  |  |  |  |  |  | Cc1ccc(-c2cc(C(F)(F)F)nn2-c2ccc(S(N)(=O)=O)cc2)cc1 [Celecoxib, celecoxib] |
|  | 0.040 | 0.081 | 0.148 | 0.185 | 0.240 | 0.613 | 0.310 | 0.671 | 0.343 | CCCc1nc2c(C)cc(-c3nc4ccccc4n3C)cc2n1Cc1ccc(-c2ccccc2C(=O)O)cc1 [Telmisartan pure active, Telmisartan] |
